Measured values: paper PMC4685012 (Bioorganic & medicinal chemistry, 2015)

Key:
[1] = test system: TNF-α, IL-1α, IL-1β mRNA expression; experiment: Quantitative RT-PCR of NTHi-induced cytokine mRNA in BEAS-2B cells; assay type: cell-based, human; conditions: 1 µM, 2 h pretreatment, 1.5 h NTHi, relative to SAHA
HDAC1/2 = conditions: read-out: HDAC1/2 IC50; cited from earlier work
MCF-7 cells = experiment: Cell viability; assay type: cell-based; conditions: for Antiproliferative activity against MCF-7, in words: MCF-7 cells
A549 cells = experiment: Cell viability; assay type: cell-based; conditions: for Antiproliferative activity against A549, in words: A549 cells
NF-κB = NF-κB luciferase assay in NTHi-stimulated BEAS-2B cells; assay type: cell-based, human
HDAC6 = target: T1, HDAC6 (Homo sapiens, UniProt Q9UBN7); experiment: HDAC6 inhibition, label-free mass spectrometry-based SAMDI assay; assay type: biochemical; conditions: vs 26e as printed
T1 sequence (Q9UBN7 1-1215): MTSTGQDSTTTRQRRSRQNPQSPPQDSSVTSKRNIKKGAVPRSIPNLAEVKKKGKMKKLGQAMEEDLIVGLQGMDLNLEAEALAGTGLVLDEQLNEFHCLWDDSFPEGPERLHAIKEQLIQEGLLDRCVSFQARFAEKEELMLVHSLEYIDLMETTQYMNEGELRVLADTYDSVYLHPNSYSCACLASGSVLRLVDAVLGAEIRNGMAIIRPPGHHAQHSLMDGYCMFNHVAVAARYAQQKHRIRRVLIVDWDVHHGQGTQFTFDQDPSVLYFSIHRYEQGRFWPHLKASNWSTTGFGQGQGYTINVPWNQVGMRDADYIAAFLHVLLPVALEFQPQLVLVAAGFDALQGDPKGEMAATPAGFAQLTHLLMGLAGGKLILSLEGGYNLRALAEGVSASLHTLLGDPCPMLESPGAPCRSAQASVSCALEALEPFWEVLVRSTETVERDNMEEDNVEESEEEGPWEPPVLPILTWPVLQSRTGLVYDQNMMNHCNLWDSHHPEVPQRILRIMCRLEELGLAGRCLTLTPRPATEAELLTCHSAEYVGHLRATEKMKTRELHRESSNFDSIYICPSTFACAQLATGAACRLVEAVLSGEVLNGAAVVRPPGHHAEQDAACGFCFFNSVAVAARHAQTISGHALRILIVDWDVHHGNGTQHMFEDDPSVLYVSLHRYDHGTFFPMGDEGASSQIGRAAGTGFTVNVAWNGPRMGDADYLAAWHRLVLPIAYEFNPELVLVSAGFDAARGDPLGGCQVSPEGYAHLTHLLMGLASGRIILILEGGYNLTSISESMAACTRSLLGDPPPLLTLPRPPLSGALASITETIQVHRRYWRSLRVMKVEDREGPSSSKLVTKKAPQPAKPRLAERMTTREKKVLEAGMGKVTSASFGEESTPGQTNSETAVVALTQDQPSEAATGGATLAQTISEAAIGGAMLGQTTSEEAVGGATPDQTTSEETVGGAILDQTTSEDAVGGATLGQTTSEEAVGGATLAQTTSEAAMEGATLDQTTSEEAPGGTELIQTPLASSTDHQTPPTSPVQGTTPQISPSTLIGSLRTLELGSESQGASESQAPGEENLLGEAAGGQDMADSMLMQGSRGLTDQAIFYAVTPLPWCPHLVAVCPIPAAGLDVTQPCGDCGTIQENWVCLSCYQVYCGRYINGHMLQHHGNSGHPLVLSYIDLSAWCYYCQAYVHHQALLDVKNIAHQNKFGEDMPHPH

HDAC8 = target: T2, HDAC8 (Homo sapiens, UniProt Q9BY41); experiment: HDAC8 inhibition, label-free mass spectrometry-based SAMDI assay; assay type: biochemical; conditions: vs 26e as printed
T2 sequence (Q9BY41 1-377): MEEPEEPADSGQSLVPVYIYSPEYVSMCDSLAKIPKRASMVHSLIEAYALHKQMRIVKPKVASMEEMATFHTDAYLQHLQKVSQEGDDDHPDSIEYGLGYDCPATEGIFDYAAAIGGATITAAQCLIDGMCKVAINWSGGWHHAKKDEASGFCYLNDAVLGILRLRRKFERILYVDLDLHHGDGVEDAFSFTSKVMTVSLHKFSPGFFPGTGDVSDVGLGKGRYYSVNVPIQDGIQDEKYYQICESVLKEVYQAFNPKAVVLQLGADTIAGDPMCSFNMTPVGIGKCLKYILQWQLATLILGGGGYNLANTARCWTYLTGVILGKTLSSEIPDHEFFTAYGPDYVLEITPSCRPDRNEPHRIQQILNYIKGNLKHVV

Vero cells = experiment: Cell viability; assay type: cell-based, monkey; conditions: Primates, 72 h, read-out: Anti-proliferative activity IC50, Vero

Structure (SMILES) | Suppression of NTHi-induced TNF-α, IL-1α, IL-1β mRNA expression [1] | Antiproliferative activity against MCF-7, in words (MCF-7 cells) | Antiproliferative activity against A549, in words (A549 cells) | further results
CC[C@@H]1OC(=O)[C@@H](C)[C@H](O[C@H]2C[C@@](C)(OC)[C@@H](O)[C@H](C)O2)[C@@H](C)[C@H](O[C@H]2O[C@@H](C)C[C@@H](N(C)C)[C@@H]2O)[C@](C)(O)C[C@H](C)CN(Cc2ccc(-c3cn(CCCCCCC(=O)NO)nn3)cc2)[C@H](C)[C@H](O)[C@@]1(C)O [Compound 8f, (Azithromycin-(N10-(4-triazolylbenzyl)))-N-hydroxyheptanamide] | more significantly suppressed |  |  | 
CC[C@H]1OC(=O)[C@@H](C)[C@H](O[C@H]2C[C@@](C)(OC)[C@@H](O)[C@H](C)O2)[C@H](C)[C@H](O[C@H]2O[C@@H](C)C[C@@H](N(C)Cc3ccc(-c4cn(CCCCCCC(=O)NO)nn4)cc3)[C@@H]2O)[C@@](C)(O)C[C@H](C)CN(C)[C@@H](C)[C@H](O)[C@@]1(C)O [Compound 17f] |  |  |  | IC50 (HDAC1/2): 0.0139 µM
CC[C@H]1OC(=O)[C@H](C)C(=O)[C@H](C)[C@@H](O[C@@H]2O[C@H](C)C[C@H](N(C)Cc3cccc(-c4cn(CCCCCC(=O)NO)nn4)c3)[C@H]2O)[C@@](C)(OC)C[C@@H](C)C2=NCCN3C(=O)O[C@@]1(C)[C@H]3[C@H]2C [Compound 25a, (Tricyclic Ketolide-3′-(N-(3-triazolylbenzyl)))-N-hydroxyhexanamide] |  | non-cytotoxic | non-cytotoxic | IC50 (MCF-7 cells; Homo sapiens, MCF7, 72 h, read-out: Anti-proliferative activity IC50, MCF-7): > 20 µM; IC50 (A549 cells; Homo sapiens, A549, 72 h, read-out: Anti-proliferative activity IC50, A549): > 20 µM; Effect on NF-κB activation, in words (NF-κB; NTHi infected BEAS-2B cells, 1 µM pre-screen): suppressing NF-κB activation; NF-κB inhibition IC50 (NF-κB; NTHi-stimulated BEAS-2B cells, luciferase): no dose-dependent effect
CC[C@H]1OC(=O)[C@H](C)C(=O)[C@H](C)[C@@H](O[C@@H]2O[C@H](C)C[C@H](N(C)Cc3cccc(-c4cn(CCCCCCC(=O)NO)nn4)c3)[C@H]2O)[C@@](C)(OC)C[C@@H](C)C2=NCCN3C(=O)O[C@@]1(C)[C@H]3[C@H]2C [Compound 25b, (Tricyclic Ketolide-3′-(N-(3-triazolylbenzyl)))-N-hydroxyheptanamide] |  | potently inhibited |  | Fold more potent against HDAC6 than 26e (HDAC6): approximately 2 fold; Fold more potent against HDAC8 than 26e (HDAC8): ~5 fold
CC[C@H]1OC(=O)[C@H](C)C(=O)[C@H](C)[C@@H](O[C@@H]2O[C@H](C)C[C@H](N(C)Cc3ccc(-c4cn(CCCCCCC(=O)NO)nn4)cc3)[C@H]2O)[C@@](C)(OC)C[C@@H](C)C2=NCCN3C(=O)O[C@@]1(C)[C@H]3[C@H]2C [Compound 26f] | more significantly suppressed |  |  | 
CC[C@@H]1OC(=O)[C@@H](C)[C@H](O[C@H]2C[C@@](C)(OC)[C@](O)(CN(C)Cc3ccc(-c4cn(CCCCCCC(=O)NO)nn4)cc3)[C@H](C)O2)[C@H](C)[C@H](O[C@@H]2O[C@H](C)C[C@H](N(C)C)[C@H]2O)[C@@](C)(OC)C[C@H](C)C(=O)[C@@H](C)[C@@H](O)[C@@]1(C)O [Compound 38f] | more significantly suppressed | potently inhibited | potently inhibited | 
CC[C@@H]1OC(=O)[C@@H](C)[C@H](O[C@@H]2C[C@](C)(OC)[C@@](O)(CN(C)C)[C@@H](C)O2)[C@H](C)[C@H](O[C@@H]2O[C@H](C)C[C@H](N(C)Cc3ccc(-c4cn(CCCCCCC(=O)NO)nn4)cc3)[C@H]2O)[C@@](C)(OC)C[C@H](C)C(=O)[C@@H](C)[C@@H](O)[C@@]1(C)O [Compound 49b, (Clarithromycin-(4′-N-(4-benzyltriazolyl))-4′′-(N,N-dimethylaminomethyl))-N-hydroxyheptanamide] |  | potently inhibited | potently inhibited | 
O=C(CCCCCCC(=O)Nc1ccccc1)NO [SAHA, suberoylanilide hydroxamic acid, reference compound] |  |  |  | IC50 (Vero cells): 1.03 ± 0.09 µM
